This note sets out measurements from US20260138949A1, “NOVEL COMPOUND AS PHOSPHOLIPASE D INHIBITOR AND USE THEREOF” (UIF (UNIVERSITY INDUSTRY FOUNDATION), YONSEI UNIVERSITY, priority 2022, published 2026).

The test system of the first assay is phospholipase D1. In words: PLD activity in HCT116 cells ([3H]phosphatidylbutanol, TLC). It counts as cell-based, human. As to conditions: compound 10 μM, cells without the compound = 100%. The procedure:
To evaluate the inhibitory effect of the compounds according to the present invention on phospholipase D1 activity, experiments were conducted as follows.
For the analysis of PLD activity in cells, human colon cancer cell line (HCT116) was cultured in a 6-well plate at 37° C. for 24 hours, washed twice with phosphate-buffered saline (PBS), and then replaced with medium containing [^3H]myristate and cultured for 24 hours. After the culture, the cells were washed three times with PBS, treated with 1-butanol, and the drug was added to a final concentration of 10 μM. The cells were trypsinized and suspended, and the amount of [^3H]phosphatidylbutanol produced in the cell suspension was measured and evaluated for PLD activity using thin layer chromatography (TLC), and the results are shown in Table 1 below.
The Remaining activity % at 10 μM in Table 1 is calculated by setting the amount of [^3H]phosphatidylbutanol produced in cells without the compound as 100% and calculating the amount of [^3H]phosphatidylbutanol produced in cells treated with the compound as a percentage. Therefore, the lower the value of Remaining activity %, the higher the PLD inhibitory activity.
`O=C(CCc1c[nH]c2ccccc12)NCc1ccc(Cl)c(Cl)c1` [Example 1-72, N-(3,4-dichlorobenzyl)-3-(1H-indol-3-yl)propanamide]: the “Remaining activity % at 10 μM” value is listed as “not active”.
With `COc1ccc(CNC(=O)CCc2c[nH]c3ccccc23)cc1OC` [Example 1-73, N-(3,4-dimethoxybenzyl)-3-(1H-indol-3-yl)propanamide], the “Remaining activity % at 10 μM” value amounted to 95.81%.
Still for that read-out and setting: the value for `O=C(CCCc1c[nH]c2ccccc12)Nc1cccc(F)c1` [Example 1-74, N-(3-fluorophenyl)-4-(1H-indol-3-yl)butanamide] was 72.65%; that for `O=C(CCCc1c[nH]c2ccccc12)Nc1ccc(F)cc1` [Example 1-75, N-(4-fluorophenyl)-4-(1H-indol-3-yl)butanamide] was “not active”; that for `O=C(CCCc1c[nH]c2ccccc12)Nc1ccc(Br)cc1` [Example 1-76, N-(4-bromophenyl)-4-(1H-indol-3-yl)butanamide] was 79.65%.
On the same count and under the same terms, the same measure for `O=C(CCCc1c[nH]c2ccccc12)Nc1cc(C(F)(F)F)cc(C(F)(F)F)c1` [Example 1-77, N-(3,5-bis(trifluoromethyl)phenyl)-4-(1H-indol-3-yl)butanamide]: 50.79%; for `O=C(CCCc1c[nH]c2ccccc12)Nc1ccc(Cl)c([N+](=O)[O-])c1` [Example 1-78, N-(4-chloro-3-nitrophenyl)-4-(1H-indol-3-yl)butanamide]: 42.24%.
`O=C(CCCc1c[nH]c2ccccc12)Nc1ccc(Cl)c(Cl)c1` [Example 1-79, N-(3,4-dichlorophenyl)-4-(1H-indol-3-yl)butanamide]: the “Remaining activity % at 10 μM” value turned out to be 61.61%.
Still for that read-out and setting: the value for `COC(=O)c1ccc(CNC(=O)CCCc2c[nH]c3ccccc23)cc1` [Example 1-80, methyl 4-((4-(1H-indol-3-yl)butanamido)methyl)benzoate] was 56.02%; that for `COc1ccc(CNC(=O)CCCc2c[nH]c3ccccc23)cc1` [Example 1-81, 4-(1H-indol-3-yl)-N-(4-methoxybenzyl)butanamide] was 59.84%.
On to `O=C(CCCc1c[nH]c2ccccc12)NCc1ccc(Cl)c(Cl)c1` [Example 1-82, N-(3,4-dichlorobenzyl)-4-(1H-indol-3-yl)butanamide], for which the “Remaining activity % at 10 μM” value was found to be 94.09%.
Same read-out and setting: the value for `O=C(Nc1ccc(F)cc1)c1cc2ccccc2[nH]1` [Example 1-83, N-(4-fluorophenyl)-1H-indole-2-carboxamide] was “not active”; that for `O=C(Nc1cc(C(F)(F)F)cc(C(F)(F)F)c1)c1cc2ccccc2[nH]1` [Example 1-84, N-(3,5-bis(trifluoromethyl)phenyl)-1H-indole-2-carboxamide] was 26.01%.
Still for that read-out and setting: the same measure for `O=C(Nc1ccc(Cl)c([N+](=O)[O-])c1)c1cc2ccccc2[nH]1` [Example 1-85, N-(4-chloro-3-nitrophenyl)-1H-indole-2-carboxamide]: 53.78%; for `O=C(Nc1ccc(Cl)c(Cl)c1)c1cc2ccccc2[nH]1` [Example 1-86, N-(3,4-dichlorophenyl)-1H-indole-2-carboxamide]: “not active”.
Same read-out and setting: the same measure for `COc1ccc(NC(=O)c2cc3ccccc3[nH]2)cc1OC` [Example 1-87, N-(3,4-dimethoxyphenyl)-1H-indole-2-carboxamide]: 71.67%; for `COC(=O)c1ccc(CNC(=O)c2cc3ccccc3[nH]2)cc1` [Example 1-88, methyl 4-((1H-indole-2-carboxamido)methyl)benzoate]: 37.79%; for `O=C(Nc1ccc(F)cc1)c1cc2cc(F)ccc2[nH]1` [Example 1-90, 5-fluoro-N-(4-fluorophenyl)-1H-indole-2-carboxamide]: 48.64%.

The assay is the same for the next values; noted with them: compound 10 μM, cells without the compound = 100%, 10 µM.
With `O=C(NNc1ccc(Cl)c(Cl)c1)c1cc2ccccc2[nH]1` [Example 1-89, N′-(3,4-dichlorophenyl)-1H-indole-2-carbohydrazide], the “Remaining activity % at 10 μM” value is 83.22%.
